# In US20060251714A1, “Pharmaceutical formulations of amyloid inhibiting compounds” (priority 2005, published 2006):
# Legend:
# [1] = Example 9 Part I: single oral doses of NC-758-1 in healthy elderly volunteers, plasma pharmacokinetics; assay type: in vivo, human; settings: elderly male and female subjects, fasted; for AUC∞: mean, only subjects with estimable elimination rate constant
# Text: (§1) In the following examples and elsewhere herein, terms are as defined below. The pharmacokinetic parameters were derived by non-compartmental analysis using WinNonlin® (Pharsight Corporation, Mountain View, Calif.) or SAS® for Windows® (SAS Institute Inc., Cary, N.C.).
# Part I—The pharmacokinetic profile and the effect of food on single oral doses of 3-APS free acid (modified-release enteric-coated tablet as described in Table 5 above, hereinafter “NC-758-1”) in healthy male and female elderly (≧55 years) volunteers. For doses at multiples of 50 mg, multiple 50 mg tables are administered. The test is an open label, three-period crossover study to assess the pharmacokinetic profile of 3 single oral doses of NC-758-1 in healthy elderly (≧55 years) male and female subjects. The blood samples are collected during 24 h following dosing. Plasma concentrations of 3-APS are determined using a validated LC-MS/MS method.
# [2] = Example 11: additional tests, crossing of the blood/brain barrier; assay type: in vivo, human; settings: treated AD patients
# [3] = Example 12: Phase II pilot study in CAA patients with lobar cerebral hemorrhage, plasma pharmacokinetics; assay type: in vivo, human; settings: for AUC(0-inf) / Cmax / AUC(0-t): human, plasma, oral; for AUC(0-inf): mean, only patients with estimable elimination rate constant
# Text: as §1
# AUCss—the area under the plasma concentrations versus time curve during a dosing interval at steady state.
# A Phase II pilot study of the safety, tolerability and pharmacokinetics of 3-APS (formulation of Table 5 above) in patients with lobar cerebral hemorrhage related to Cerebral Amyloid Angiopathy (CAA). For doses at multiples of 50 mg, multiple 50 mg tables are administered. A multicenter, randomized, double-blind, and parallel designed study is conducted in the United States with 3-APS in patients who survived a lobar cerebral hemorrhage related to cerebral amyloid angiopathy (CAA). The main objective of this study is to assess the safety and tolerability of 3-APS and to characterize its pharmacokinetics in CAA patients.
# A total of 24 patients who have had lobar cerebral hemorrhage are randomized to receive in a 1:1:1 ratio 3-APS 50, 100 or 150 mg BID for 12 weeks. A lumbar puncture is performed on an optional basis at Weeks 0 and 12 to assess the pharmacological effect of 3-APS on Aβ40, Aβ42 and tau concentrations in cerebrospinal fluid (CSF) and to measure the drug concentration in the CSF. Rating instruments (NIHSS, Barthel Index, ADAS-cog and EXIT25) are administered at Weeks 0 and 12 to evaluate the neurological and cognitive functions as well as the daily functioning.
# For pharmacokinetic investigations, blood samples are collected from each patient prior to dosing and at specified time points through 12 h post-dose after the first dose (Week 0) and the last dose (Week 12). Blood samples are also collected prior to the first dose of the day during Week 2, 4 and 8 visits. CSF samples are obtained by lumbar puncture prior to dosing on Week 0 and approximately 5 hours post-dose on Week 12.
# [4] = Hygroscopicity of the drug substance; assay type: physicochemical
# Description: Furthermore, the non-hygroscopic nature of the acid form makes it desirable as active pharmaceutical ingredient. To further protect against any possible gastrointestinal intolerance that could result from the acid form, the tablets are enteric-coated and a modified-release agent is added to control any rapid release of the drug in the stomach and the intestine, respectively.
# [5] = single oral 50 mg NC-758-1 (Table 5 tablet), n = 9, mean
# [6] = single oral 100 mg NC-758-1 (Table 5 tablet), n = 9, mean
# [7] = single oral 150 mg NC-758-1 (Table 5 tablet), n = 8, mean
structure (smiles),measurement,setting,value
"NCCCS(=O)(=O)O [3-APS, 3-amino-1-propanesulfonic acid]",AUC∞,[1]; single oral 50 mg NC-758-1 (Table 5 tablet),1566 ng·h/mL
same,AUC(0-t),[1]; [5],1537 ng·h/mL
same,Cmax,[1]; [5],469 ng/mL
same,AUC∞,[1]; single oral 100 mg NC-758-1 (Table 5 tablet),2871 ng·h/mL
same,AUC(0-t),[1]; [6],3128 ng·h/mL
same,Cmax,[1]; [6],745 ng/mL
same,AUC∞,[1]; single oral 150 mg NC-758-1 (Table 5 tablet),4497 ng·h/mL
same,AUC(0-t),[1]; [7],5303 ng·h/mL
same,Cmax,[1]; [7],1029 ng/mL
same,crossing of the blood/brain barrier,[2],crossed the blood/brain barrier
same,Tmax,"[3]; 50 mg BID (Table 5 tablet), Week 0 (single dose), n = 8, median",4.5 h
same,Tmax,"[3]; 50 mg BID (Table 5 tablet), Week 12 (repeated), n = 8, median",4.4 h
same,Tmax,"[3]; 100 mg BID (Table 5 tablet), Week 12 (repeated), n = 6, median",5.15 h
same,Tmax,"[3]; 150 mg BID (Table 5 tablet), Week 12 (repeated), n = 3, median",5.4 h
same,AUC(0-inf),"[3]; 50 mg BID (Table 5 tablet), Week 0 (single dose)",1640 ng·h/mL
same,Cmax,"[3]; 50 mg, 50 mg BID (Table 5 tablet), Week 0 (single dose), n = 8, mean",346 ng/mL
same,AUC(0-t),"[3]; 50 mg, 50 mg BID (Table 5 tablet), Week 0 (single dose), n = 8, mean, read-out: AUC0-t",1280 ng·h/mL
same,Cmax,"[3]; 50 mg, 50 mg BID (Table 5 tablet), Week 12 (repeated), n = 8, mean",171 ng/mL
same,AUC(0-t),"[3]; 50 mg, 50 mg BID (Table 5 tablet), Week 12 (repeated), n = 8, mean, read-out: AUC0-t (AUCss for Week 12)",947 ng·h/mL
same,AUC(0-inf),"[3]; 100 mg BID (Table 5 tablet), Week 0 (single dose)",2780 ng·h/mL
same,Cmax,"[3]; 100 mg, 100 mg BID (Table 5 tablet), Week 0 (single dose), n = 7, mean",552 ng/mL
same,AUC(0-t),"[3]; 100 mg, 100 mg BID (Table 5 tablet), Week 0 (single dose), n = 7, mean, read-out: AUC0-t",2630 ng·h/mL
same,Cmax,"[3]; 100 mg, 100 mg BID (Table 5 tablet), Week 12 (repeated), n = 6, mean",806 ng/mL
same,AUC(0-t),"[3]; 100 mg, 100 mg BID (Table 5 tablet), Week 12 (repeated), n = 6, mean, read-out: AUC0-t (AUCss for Week 12)",3700 ng·h/mL
same,AUC(0-inf),"[3]; 150 mg BID (Table 5 tablet), Week 0 (single dose)",3690 ng·h/mL
same,Cmax,"[3]; 150 mg, 150 mg BID (Table 5 tablet), Week 0 (single dose), n = 5, mean",857 ng/mL
same,AUC(0-t),"[3]; 150 mg, 150 mg BID (Table 5 tablet), Week 0 (single dose), n = 5, mean, read-out: AUC0-t",3900 ng·h/mL
same,Cmax,"[3]; 150 mg, 150 mg BID (Table 5 tablet), Week 12 (repeated), n = 3, mean",1030 ng/mL
same,AUC(0-t),"[3]; 150 mg, 150 mg BID (Table 5 tablet), Week 12 (repeated), n = 3, mean, read-out: AUC0-t (AUCss for Week 12)",6750 ng·h/mL
same,hygroscopic nature,[4],non-hygroscopic
